Bridges are numbered along the chain shown (N, C = ends). Where no end group is shown, it is not given here.
Legend:
[1] = molecular target: T1, recombinant human endothelin converting enzyme-1 (rhECE-1) (Homo sapiens, UniProt P42892); test: in vitro assay for rh-ECE-1 inhibition (radioimmunoassay of ET-1 formed from big ET-1); format: biochemical; details: membrane preparation from CHO cells, human big ET-1 0.2 µM, 2 h at 37 °C
T1 construct: made in house; host or cells: Chinese hamster ovary (CHO) cells; 100,000 x g membrane pellet of the homogenate
T1 sequence (P42892 1-770): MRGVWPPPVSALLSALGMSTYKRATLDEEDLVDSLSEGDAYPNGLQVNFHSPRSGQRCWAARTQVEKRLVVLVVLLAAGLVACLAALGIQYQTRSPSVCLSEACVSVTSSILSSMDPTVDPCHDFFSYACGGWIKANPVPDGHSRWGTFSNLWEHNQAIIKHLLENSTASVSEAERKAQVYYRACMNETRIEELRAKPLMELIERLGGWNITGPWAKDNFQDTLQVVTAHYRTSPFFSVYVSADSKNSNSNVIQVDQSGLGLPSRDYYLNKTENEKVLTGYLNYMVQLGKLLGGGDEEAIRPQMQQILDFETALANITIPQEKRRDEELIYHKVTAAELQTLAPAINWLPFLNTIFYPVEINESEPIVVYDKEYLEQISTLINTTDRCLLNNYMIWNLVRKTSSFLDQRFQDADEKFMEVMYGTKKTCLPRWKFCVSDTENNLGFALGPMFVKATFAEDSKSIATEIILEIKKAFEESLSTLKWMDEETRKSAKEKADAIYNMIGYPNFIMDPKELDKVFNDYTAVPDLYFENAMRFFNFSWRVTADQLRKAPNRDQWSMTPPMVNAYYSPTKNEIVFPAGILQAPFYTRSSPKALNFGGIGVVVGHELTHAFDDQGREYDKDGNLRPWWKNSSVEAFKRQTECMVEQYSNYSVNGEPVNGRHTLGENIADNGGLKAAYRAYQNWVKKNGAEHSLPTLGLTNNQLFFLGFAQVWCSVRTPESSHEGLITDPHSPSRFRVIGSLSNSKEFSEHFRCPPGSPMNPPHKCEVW
Procedure: Cells are harvested by scraping, pelleted by centrifugation, and homogenized at 4 °C in a buffer containing 5 mM MgCl2., 1 µM pepstatin A, 100 µM leupeptin, 1 mM PMSF, and 20 mM Tris, pH 7.0, with a ratio of 2 mL of buffer/mL of cells. The cell debris is removed by brief centrifugation, and the supernatant is centrifuged again at 100,000 x g for 30 minutes. The resulting pellet is resuspended in a buffer containing 200 mM NaCl and 50 mM Tes, pH 7.0, at a protein concentration about 15 mg/mL and stored in aliquots at -80°C.
To assess the effect of an inhibitor on ECE-1 activity, 10 µg of protein is preincubated with the compound at a desired concentration for 20 min at room temperature in 50 mM TES, pH 7.0, and 0.005% Triton X-100 in a volume of 10 µL. […]
Diluted samples (200 µL) obtained from the above enzyme assay are incubated at 4° C overnight with 25 µL each of [^125I]ET-1 (10,000 cpm/tube) and 1:20,000-fold diluted rabbit antibodies that recognize specifically the carboxyl terminal tryptophan of ET-1. […] The supernatant is decanted, and the radioactivity in the pellet is counted in a gamma counter. Total and nonspecific binding are measured in the absence of nonradioactive ET-1 and anti-ET antibodies, respectively.
In order to determine the IC50 value of an inhibitor, a concentration-response curve of each inhibitor is determined. […]

[2] = molecular target: rabbit antibodies that recognize specifically the carboxyl terminal tryptophan of ET-1; format: binding; details: mean ± SEM, n = 3 - 5; 4° C overnight
Procedure: Diluted samples (200 µL) obtained from the above enzyme assay are incubated at 4° C overnight with 25 µL each of [^125I]ET-1 (10,000 cpm/tube) and 1:20,000-fold diluted rabbit antibodies that recognize specifically the carboxyl terminal tryptophan of ET-1. Goat anti-rabbit antibodies coupled to magnetic beads (70 µg) are then added to each tube, and the reaction mixture is further incubated for 30 min at room temperature. The beads are pelleted using a magnetic rack. The supernatant is decanted, and the radioactivity in the pellet is counted in a gamma counter. Total and nonspecific binding are measured in the absence of nonradioactive ET-1 and anti-ET antibodies, respectively.

| Compound | IC50 [1] [nM] | IC50 values (displace [125I]ET-1 binding to the antibodies) [2] |
| --- | --- | --- |
| CC(C)C[C@H](S)C(=O)NC1(C(=O)N[C@@H](Cc2ccc(-c3cccs3)nc2)C(=O)O)CCCC1 [Example 2(s), 2-{[1-(2-Mercapto-4-methyl-pentanoylamino)-cyclopentanecarbonyl]-amino}-3-[6-(thien-2-yl)-pyridin-3-yl]-propionic acid] | ~4 | – |
| big ET-1: Human big ET-1, substrate of the ECE-1 assay (CSCSSLMDKECVYFCHLDIIWVNTPEHVVPYGLGSPRS; disulfide 1-15, 3-11; ends not checked; UniProt P05305 53-90, looked up) | – | 260,000 ± 66,000 fmol |

From patent EP1080104B1, “CERTAIN HETEROARYL SUBSTITUTED THIOL INHIBITORS OF ENDOTHELIN-CONVERTING ENZYME” (Novartis AG, priority 1998, dated 2005)
